We go through 13 compounds from patent publication US9745305B2, “Modulators of methyl modifying enzymes, compositions and uses thereof” (Constellation Pharmaceuticals, Inc., priority 2013, dated 2017).

SMILES strings stand for the structures. Bounds are passed on as bounds.

Usually IC50 stands for the concentration needed to halve the response being measured.

One assay concerns the target Y641N EZH2 (Homo sapiens, UniProt Q15910, Y641N). Briefly: Assay for Y641N EZH2 (as the EZH2 assay, H3K27Me2 oligonucleosomes as substrate). It counts as biochemical. As to conditions: Y641N EZH2 mutant, reconstituted H3K27Me2 oligonucleosomes as substrate. The method, then:
(§1) EZH2 Assay: Assays were carried out by mixing rPRC2 together with biotinylated oligonucleosome substrates in the presence of the radio-labeled enzyme co-factor, S-adenosyl-L-methionine (^3H SAM) (Perkin Elmer) and monitoring the enzymatically mediated transfer of tritiated methyl groups from ^3H SAM to histone lysine residues. The amount of resulting tritiated methyl histone product was measured by first capturing the biotinylated oligonucleosomes in streptavidin (SAV) coated FlashPlates (Perkin Elmer), followed by a wash step to remove unreacted ^3H SAM, and then counting on a TopCount NXT 384 well plate scintillation counter (Perkin Elmer). The final assay conditions for EZH2 were as follows: 50 mM Tris Buffer pH 8.5, 1 mM DTT, 69 μM Brij-35 detergent, 5.0 mM MgCl2, 0.1 mg/mL BSA, 0.2 μM ^3H SAM, 0.2 μM biotinylated oligonucleosomes, 3.6 μM H3K27me3 peptide and 2 nM EZH2.
(§2) Compound IC50 measurements were obtained as follows: Compounds were first dissolved in 100% DMSO as 10 mM stock solutions. Ten point dose response curves were generated by dispensing varying amounts of the 10 mM compound solution in 10 wells of the 384 well plate (Echo; Labcyte), pure DMSO was then used to backfill the wells to insure all wells have the same amount of DMSO. A 12.5 μL volume of the HMT enzyme, H3K27me3 peptide and oligonucleosome substrate in assay buffer was added to each well of the assay plate using a Multidrop Combi (ThermoFisher). Compounds were pre-incubated with the enzyme for 20 min, followed by initiation of the methyltransferase reaction by addition of 12.5 μL of ^3H SAM in assay buffer (final volume=25 μL). The final concentrations of compounds ranged from a top default concentration of 80 μM down to 0.16 μM in ten 2-fold dilution steps. Reactions were carried out for 60 minutes and quenched with 20 μL per well of 1.96 mM SAH, 50 mM Tris pH 8.5, 200 mM EDTA. Stopped reactions were transferred to SAV coated Flashplates (Perkin Elmer), incubated for 120 min, washed with a plate washer, and then read on the TopCount NXT (1.0 min/well) to measure the amount of methyl histone product formed during the reaction. The amount of methyl histone product was compared with the amount of product formed in the 0% and 100% inhibition control wells allowing the calculation of % Inhibition in the presence of the individual compounds at various concentrations. IC50's were computed using a 4 parameter fit non-linear curve fitting software package (XLFIT, part of the database package, ActivityBase (IDBS)) where the four parameters were IC50, Hill slope, pre-transitional baseline (0% INH), and post-transitional baseline (100% INH); with the latter two parameters being fixed to zero and 100%, respectively, by default.
Assay for Y641N EZH2 was performed as above using reconstituted H3K27Me2 oligonucleosomes as substrate.

The next assay concerns the target EZH2 (Homo sapiens, UniProt Q15910). Briefly: EZH2 Assay (3H SAM methyl transfer, rPRC2, FlashPlate). It counts as biochemical. As to conditions: rPRC2, biotinylated oligonucleosomes, 0.2 μM 3H SAM, 2 nM EZH2. How it is done: as §1, §2

Sequence of Y641N EZH2 (Q15910 whole entry Y641N): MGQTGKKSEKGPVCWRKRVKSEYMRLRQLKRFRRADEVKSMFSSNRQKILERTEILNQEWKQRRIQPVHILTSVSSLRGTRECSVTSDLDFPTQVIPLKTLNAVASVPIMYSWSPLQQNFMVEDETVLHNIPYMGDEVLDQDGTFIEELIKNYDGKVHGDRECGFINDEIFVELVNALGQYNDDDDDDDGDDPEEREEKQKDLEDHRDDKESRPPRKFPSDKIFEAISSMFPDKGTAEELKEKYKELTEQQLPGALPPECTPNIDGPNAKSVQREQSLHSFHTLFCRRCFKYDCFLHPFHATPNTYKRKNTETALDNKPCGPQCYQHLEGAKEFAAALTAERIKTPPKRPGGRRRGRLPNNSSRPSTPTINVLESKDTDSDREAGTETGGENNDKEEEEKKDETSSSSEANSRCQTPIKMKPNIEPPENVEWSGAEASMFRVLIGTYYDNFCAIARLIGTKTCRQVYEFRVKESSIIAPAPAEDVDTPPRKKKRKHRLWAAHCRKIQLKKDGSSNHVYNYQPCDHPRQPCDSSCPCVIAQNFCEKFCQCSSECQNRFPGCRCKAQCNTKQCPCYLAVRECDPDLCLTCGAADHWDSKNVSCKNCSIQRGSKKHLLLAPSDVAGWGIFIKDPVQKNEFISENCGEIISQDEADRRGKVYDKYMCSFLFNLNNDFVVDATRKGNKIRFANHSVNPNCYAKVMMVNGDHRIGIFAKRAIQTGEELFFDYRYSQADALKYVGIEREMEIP
Sequence of Y641N EZH2 (O75530 whole entry partner): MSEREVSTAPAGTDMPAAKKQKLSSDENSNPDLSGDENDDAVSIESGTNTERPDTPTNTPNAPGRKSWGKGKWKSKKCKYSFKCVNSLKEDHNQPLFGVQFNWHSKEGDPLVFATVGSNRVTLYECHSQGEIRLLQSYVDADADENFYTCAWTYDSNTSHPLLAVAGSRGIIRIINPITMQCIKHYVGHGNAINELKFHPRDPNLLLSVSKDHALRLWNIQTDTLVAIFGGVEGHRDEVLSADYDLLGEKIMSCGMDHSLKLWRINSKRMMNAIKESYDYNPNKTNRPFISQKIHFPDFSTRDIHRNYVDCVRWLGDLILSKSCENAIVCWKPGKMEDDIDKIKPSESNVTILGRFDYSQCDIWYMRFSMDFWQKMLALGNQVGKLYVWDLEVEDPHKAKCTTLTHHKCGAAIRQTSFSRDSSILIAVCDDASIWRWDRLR
Sequence of Y641N EZH2 (Q15022 whole entry partner): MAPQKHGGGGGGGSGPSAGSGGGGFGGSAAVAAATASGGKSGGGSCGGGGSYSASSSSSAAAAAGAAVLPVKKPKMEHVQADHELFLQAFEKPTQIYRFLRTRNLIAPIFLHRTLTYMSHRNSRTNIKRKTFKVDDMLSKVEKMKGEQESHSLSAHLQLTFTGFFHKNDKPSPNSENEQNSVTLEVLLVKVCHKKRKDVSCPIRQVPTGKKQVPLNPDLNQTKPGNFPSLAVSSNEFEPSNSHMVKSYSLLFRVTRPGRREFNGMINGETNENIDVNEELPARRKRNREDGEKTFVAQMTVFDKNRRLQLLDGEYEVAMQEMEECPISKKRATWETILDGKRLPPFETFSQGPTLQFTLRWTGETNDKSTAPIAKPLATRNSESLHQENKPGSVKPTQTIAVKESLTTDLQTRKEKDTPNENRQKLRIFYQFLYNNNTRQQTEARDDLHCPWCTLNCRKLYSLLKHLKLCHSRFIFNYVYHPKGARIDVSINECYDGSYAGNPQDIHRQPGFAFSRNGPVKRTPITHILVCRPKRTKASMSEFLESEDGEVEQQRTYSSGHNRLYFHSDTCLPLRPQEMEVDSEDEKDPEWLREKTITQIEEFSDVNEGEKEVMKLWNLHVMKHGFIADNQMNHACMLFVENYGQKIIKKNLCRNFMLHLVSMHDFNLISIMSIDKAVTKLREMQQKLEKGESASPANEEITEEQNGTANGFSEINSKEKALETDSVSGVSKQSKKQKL
Sequence of EZH2 (Q15910 whole entry): as the sequence (Q15910 whole entry Y641N) above, with N641Y counted along it
Sequence of EZH2 (O75530 whole entry partner): as the sequence (O75530 whole entry partner) above
Sequence of EZH2 (Q15022 whole entry partner): as the sequence (Q15022 whole entry partner) above

For `COc1cc(C)[nH]c(=O)c1CNC(=O)c1c(C)c(C(C)N(C)C(C)=O)n2ncccc12` (racemic) [Compound 104, (±)-N-((4-methoxy-6-methyl-2-oxo-1,2-dihydropyridin-3-yl)methyl)-6-methyl-7-(1-(N-methylacetamido)ethyl)pyrrolo[1,2-b]pyridazine-5-carboxamide], the IC50 against Y641N EZH2 is 100 to 1000 nM; against EZH2 it was less than 100 nM.
On to `COc1cc(C)[nH]c(=O)c1CNC(=O)c1c(C)c(C(C)c2cccn(C)c2=O)n2ncccc12` (racemic) [Compound 111, (±)-N-((4-methoxy-6-methyl-2-oxo-1,2-dihydropyridin-3-yl)methyl)-6-methyl-7-(1-(1-methyl-2-oxo-1,2-dihydropyridin-3-yl)ethyl)pyrrolo[1,2-b]pyridazine-5-carboxamide], for which the IC50 at Y641N EZH2 was in the range of 1000 to 10000 nM. Besides, the “EZH2 IC50” value on EZH2 is on record as “*(0.25 μM)”.
Regarding `CCS(=O)(=O)N1CCC(C(C)c2c(C)c(C(=O)NCc3c(OC)cc(C)[nH]c3=O)n3ccncc23)CC1` (racemic) [Compound 117, (±)-8-(1-(1-(ethylsulfonyl)piperidin-4-yl)ethyl)-N-((4-methoxy-6-methyl-2-oxo-1,2-dihydropyridin-3-yl)methyl)-7-methylpyrrolo[1,2-a]pyrazine-6-carboxamide], the IC50 against Y641N EZH2 and on EZH2 was less than 100 nM throughout.
On to `CCS(=O)(=O)N1CCC(C(C)c2c(C)c(C(=O)NCc3c(OC)cc(C)[nH]c3=O)c3cnccn23)CC1` (racemic) [Compound 119, (±)-6-(1-(1-(ethylsulfonyl)piperidin-4-yl)ethyl)-N-((4-methoxy-6-methyl-2-oxo-1,2-dihydropyridin-3-yl)methyl)-7-methylpyrrolo[1,2-a]pyrazine-8-carboxamide], for which the IC50 against Y641N EZH2 and on EZH2 was less than 100 nM in each case.
Regarding `Cc1cc(C)c(CNC(=O)c2c(C)c(C(C)C3CCN(C)CC3)n3ncccc23)c(=O)[nH]1` (racemic) [Compound 124, (±)-N-((4,6-dimethyl-2-oxo-1,2-dihydropyridin-3-yl)methyl)-6-methyl-7-(1-(1-methylpiperidin-4-yl)ethyl)pyrrolo[1,2-b]pyridazine-5-carboxamide], the IC50 against Y641N EZH2 was 100 to 1000 nM; against EZH2, less than 100 nM.
The matching figures for `COc1cc(C)[nH]c(=O)c1CNC(=O)c1c(C)c(C(C)=O)n2ncccc12` [Compound 100, 7-acetyl-N-((4-methoxy-6-methyl-2-oxo-1,2-dihydropyridin-3-yl)methyl)-6-methylpyrrolo[1,2-b]pyridazine-5-carboxamide]: greater than 10000 nM and 1000 to 10000 nM.
As for `COc1cc(C)[nH]c(=O)c1CNC(=O)c1c(C)c(-c2ccnn2C)n2ncccc12` [Compound 109, N-((4-methoxy-6-methyl-2-oxo-1,2-dihydropyridin-3-yl)methyl)-6-methyl-7-(1-methyl-1H-pyrazol-5-yl)pyrrolo[1,2-b]pyridazine-5-carboxamide], the IC50 against Y641N EZH2 and against EZH2 was 100 to 1000 nM each time.
With `Cc1cc(C)c(CNC(=O)c2c(C)c(-c3c(C)noc3C)n3ncccc23)c(=O)[nH]1` [Compound 118, N-((4,6-dimethyl-2-oxo-1,2-dihydropyridin-3-yl)methyl)-7-(3,5-dimethylisoxazol-4-yl)-6-methylpyrrolo[1,2-b]pyridazine-5-carboxamide], the IC50 on Y641N EZH2 and against EZH2 was less than 100 nM each time.
Consider `COc1cc(C)[nH]c(=O)c1CNC(=O)c1c(C)c(-c2c(C)cnn2C)n2ncccc12` [Compound 120, 7-(1,4-dimethyl-1H-pyrazol-5-yl)-N-((4-methoxy-6-methyl-2-oxo-1,2-dihydropyridin-3-yl)methyl)-6-methylpyrrolo[1,2-b]pyridazine-5-carboxamide], for which the IC50 at Y641N EZH2 and at EZH2 was 100 to 1000 nM each time.
Take `CCCc1cc(C)[nH]c(=O)c1CNC(=O)c1c(C)c(-c2c(C)noc2C)n2ncccc12` [Compound 123, 7-(3,5-dimethylisoxazol-4-yl)-6-methyl-N-((6-methyl-2-oxo-4-propyl-1,2-dihydropyridin-3-yl)methyl)pyrrolo[1,2-b]pyridazine-5-carboxamide]: on Y641N EZH2, the “Y641N EZH2 IC50” value is on record as “*(0.5 μM)”. At EZH2, the IC50 was less than 100 nM.
`Cc1cc(C)c(CNC(=O)c2c(C)c(C(=O)N3CCOCC3)n3ncccc23)c(=O)[nH]1` [Compound 125, N-((4,6-dimethyl-2-oxo-1,2-dihydropyridin-3-yl)methyl)-6-methyl-7-(morpholine-4-carbonyl)pyrrolo[1,2-b]pyridazine-5-carboxamide] returned an IC50 against EZH2 of 100 to 1000 nM.
On EZH2, `Cc1cc(C)c(CNC(=O)c2c(C)c(C(=O)N3CCN(S(C)(=O)=O)CC3)n3ncccc23)c(=O)[nH]1` [Compound 126, N-((4,6-dimethyl-2-oxo-1,2-dihydropyridin-3-yl)methyl)-6-methyl-7-(4-(methylsulfonyl)piperazine-1-carbonyl)pyrrolo[1,2-b]pyridazine-5-carboxamide] gave an IC50 of 1000 to 10000 nM.
Take `CCN(C)C(C)c1c(C)c(C(=O)NCc2c(OC)cc(C)[nH]c2=O)c2cccnn12` (centres unmarked) [Compound 131, 7-(1-(ethyl(methyl)amino)ethyl)-N-((4-methoxy-6-methyl-2-oxo-1,2-dihydropyridin-3-yl)methyl)-6-methylpyrrolo[1,2-b]pyridazine-5-carboxamide]: at EZH2, the IC50 was 100 to 1000 nM.
